{"source": "patent US20100298141A1", "about": "“SUBSTITUTED PYRIDINE N-OXIDE HERBICIDES” (E. I. DU PONT DE NEMOURS AND COMPANY, priority 2007, published 2010)", "key": {"[1]": {"test_system": "Italian ryegrass (LOLMU)", "assay": "Test I preemergence mixtures of compound 2 with crop safeners", "format": "in vivo, Lolium multiflorum", "details": "alone", "from_the_text": "Seeds of test plants consisting of winter wheat (TRZAW, Triticum aestivum), corn (ZEAMD, Zea mays cv. ‘Pioneer 33G26’), wild oat (AVEFA, Avena fatua), and Italian ryegrass (LOLMU, Lolium multiflorum) were planted into a blend of loam soil and sand and treated preemergence with a directed soil spray using test chemicals formulated in a non-phytotoxic solvent mixture that included a surfactant. Seeds of small-seeded species were planted about 1 cm deep; larger seeds were planted about 2.5 cm deep. […] Balanced fertilizer was applied through the watering system. Treatments consisted of Compound 2 and the above mentioned safeners alone and in combination using a spray volume of 457 L/ha. Each treatment was replicated four times. Treated plants and controls were maintained in a greenhouse for 14 to 21 days, after which time all species were compared to controls and visually evaluated. […] A dash (-) response means no test result. Colby's Equation was used to determine the herbicidal effects expected from the mixtures. Colby's Equation (Colby, S. […] Pa+b=Pa+Pb−(PaPb/100) wherein • Pa+b is the percentage effect of the mixture expected from additive contribution of the individual components, • Pa is the observed percentage effect of the first active ingredient at the same use rate as in the mixture, and • Pb is the observed percentage effect of the second active ingredient at the same use rate as in the mixture."}, "[2]": {"test_system": "winter wheat (TRZAW)", "assay": "Test J preemergence mixtures of Compound 2 with crop safeners", "format": "in vivo, Triticum aestivum", "set-up": "key to TRZAW Obsd. (observed effect): observed % herbicidal effect", "from_the_text": "(§1) Seeds of test plants consisting of winter wheat (TRZAW, Triticum aestivum) and corn (ZEAMD, Zea mays cv. ‘Pioneer 33G26’) were planted into a blend of loam soil and sand and treated preemergence with a directed soil spray using test chemicals formulated in a non-phytotoxic solvent mixture that included a surfactant. […] Balanced fertilizer was applied through the watering system. Treatments consisted of Compound 2 and the above mentioned safeners alone and in combination using a spray volume of 457 L/ha. Each treatment was replicated four times. […] A dash (-) response means no test result. Colby's Equation was used to determine the herbicidal effects expected from the mixtures. Colby's Equation (Colby, S. […] wherein • Pa+b is the percentage effect of the mixture expected from additive contribution of the individual components, • Pa is the observed percentage effect of the first active ingredient at the same use rate as in the mixture, and Pb is the observed percentage effect of the second active ingredient at the same use rate as in the mixture."}, "[3]": {"test_system": "corn (ZEAMD)", "assay": "Test J preemergence mixtures of Compound 2 with crop safeners", "format": "in vivo, Zea mays cv. ‘Pioneer 33G26’", "set-up": "key to ZEAMD Obsd. (observed effect): observed % herbicidal effect", "from_the_text": "as §1"}, "[4]": {"test_system": "corn (ZEAMD)", "assay": "Test H preemergence mixtures of compound 2 with crop safeners", "format": "in vivo, Zea mays cv. ‘Pioneer 33G26’", "set-up": "key to ZEAMD Obsd. (observed effect): observed % effect, visually evaluated vs controls", "from_the_text": "(§2) Seeds of test plants consisting of winter wheat (TRZAW, Triticum aestivum), corn (ZEAMD, Zea mays cv. ‘Pioneer 33G26’), giant foxtail (SETFA, Setaria faberi), and Italian ryegrass (LOLMU, Lolium multiflorum) were planted into a blend of loam soil and sand and treated preemergence with a directed soil spray using test chemicals formulated in a non-phytotoxic solvent mixture that included a surfactant. Seeds of small-seeded species were planted about 1 cm deep; larger seeds were planted about 2.5 cm deep. […] Balanced fertilizer was applied through the watering system. Treatments consisted of Compound 2 and the above mentioned safeners alone and in combination using a spray volume of 457 L/ha. Each treatment was replicated four times. Treated plants and controls were maintained in a greenhouse for 14 to 21 days, after which time all species were compared to controls and visually evaluated. […] A dash (-) response means no test result. Colby's Equation was used to determine the herbicidal effects expected from the mixtures. Colby's Equation (Colby, S. […] wherein • Pa+b is the percentage effect of the mixture expected from additive contribution of the individual components, • Pa is the observed percentage effect of the first active ingredient at the same use rate as in the mixture, and • Pb is the observed percentage effect of the second active ingredient at the same use rate as in the mixture."}, "[5]": {"test_system": "winter wheat (TRZAW)", "assay": "Test H preemergence mixtures of compound 2 with crop safeners", "format": "in vivo, Triticum aestivum", "set-up": "key to TRZAW Obsd. (observed effect): observed % effect, visually evaluated vs controls", "from_the_text": "as §2"}, "[6]": {"test_system": "Italian ryegrass (LOLMU)", "assay": "Test H preemergence mixtures of compound 2 with crop safeners", "format": "in vivo, Lolium multiflorum", "set-up": "key to LOLMU Obsd. (observed effect): observed % effect, visually evaluated vs controls", "from_the_text": "as §2"}, "[7]": {"details": "single active ingredient alone at 125 g a.i./ha"}, "[8]": {"details": "Cmpd 2 alone 125 g a.i./ha, scale 0 to 100, mean of four replicates"}}, "data": [{"smiles": "Cc1cc[n+]([O-])c(S(=O)(=O)Cc2c(C(F)(F)F)nn(C)c2OC(F)F)c1", "note": "[Compound 2]", "values": [{"measurement": "LOLMU Obsd. (observed effect)", "setting": "[1]; 125 g a.i./ha", "result": 48}, {"measurement": "LOLMU Obsd. (observed effect)", "setting": "[1]; 250 g a.i./ha", "result": 89}, {"measurement": "TRZAW Obsd. (observed effect)", "setting": "[2]; Test J, alone, 125 g a.i./ha", "result": 100}, {"measurement": "Observed effect (Obsd.), TRZAW", "setting": "[2]; [7]", "result": 100, "unit": "%"}, {"measurement": "ZEAMD Obsd. (observed effect)", "setting": "[3]; Test J, alone, 125 g a.i./ha", "result": 35}, {"measurement": "Observed effect (Obsd.), ZEAMD", "setting": "[3]; [7]", "result": 35, "unit": "%"}, {"measurement": "Plant response rating ZEAMD Obsd.", "setting": "[4]; [8]", "result": 15}, {"measurement": "ZEAMD Obsd. (observed effect)", "setting": "[4]; Test H, alone, 125 g a.i./ha", "result": 15}, {"measurement": "Plant response rating TRZAW Obsd.", "setting": "[5]; [8]", "result": 63}, {"measurement": "TRZAW Obsd. (observed effect)", "setting": "[5]; Test H, alone, 125 g a.i./ha", "result": 63}, {"measurement": "Plant response rating LOLMU Obsd.", "setting": "[6]; [8]", "result": 53}, {"measurement": "LOLMU Obsd. (observed effect)", "setting": "[6]; Test H, alone, 125 g a.i./ha", "result": 53}]}]}
